The values below come from patent publication US10517889B2, “Modulators of SMAD7 expression” (Ionis Pharmaceuticals, Inc., priority 2017, dated 2019).

Strand notation (5' to 3'): a small letter for the sugar, then the base; units joined by * are phosphorothioate-linked, units joined directly phosphodiester-linked; [ ] holds rarer units or linkages, { } end groups; capitals alone tell only the bases. k = constrained ethyl (cEt); [5mC] = 5-methylcytosine; d = 2'-deoxy (DNA)

The subject of this data set is human SMAD7 mRNA. The experiment in a line: Antisense inhibition of human SMAD7 mRNA expression in Hep3B cells by 3-10-3 cEt gapmers, 10,000 nM, electroporation (Example 2). The settings on record: Hep3B cells, electroporation with 10,000 nM antisense oligonucleotide, approximately 24 hours, primer probe set RTS5062, relative to untreated control cells. The class given is cell-based. Summed up: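 qRT-PCR (RTS5062) of SMAD7 mRNA, normalised to RIBOGREEN total RNA, gave percent inhibition relative to untreated controls. Hep3B cells at 20,000 per well received 10,000 nM oligonucleotide by electroporation, with ~24 h treatment.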
Regarding “799052 (antisense k[5mC]*kT*kG*dT*dG*dG*dA*d[5mC]*dA*dG*dG*d[5mC]*d[5mC]*k[5mC]*kG*kT) [compound 799052]”, the “% inhibition of SMAD7 mRNA expression” value came to 40%. Consider “799053 (antisense kA*kG*k[5mC]*d[5mC]*dT*dG*dT*dG*dG*dA*d[5mC]*dA*dG*kG*k[5mC]*k[5mC]) [compound 799053]”, for which the “% Inhibition” value worked out at 0%.

With “799054 (antisense k[5mC]*kA*kG*dA*dA*dG*d[5mC]*d[5mC]*dT*dG*dT*dG*dG*kA*k[5mC]*kA) [compound 799054]”, the “% Inhibition” value came out at 15%.

Regarding “799055 (antisense kG*k[5mC]*kT*d[5mC]*dA*dG*dA*dA*dG*d[5mC]*d[5mC]*dT*dG*kT*kG*kG) [compound 799055]”, the “% Inhibition” value was 19%. Turning to “799056 (antisense k[5mC]*kG*k[5mC]*dT*dG*d[5mC]*dT*d[5mC]*dA*dG*dA*dA*dG*k[5mC]*k[5mC]*kT) [compound 799056]”, the “% Inhibition” value was determined as 28%. The same measure, in the same setting: next, “799057 (antisense kG*kG*k[5mC]*dT*d[5mC]*dG*d[5mC]*dT*dG*d[5mC]*dT*d[5mC]*dA*kG*kA*kA) [compound 799057]”: 0%; “799058 (antisense kA*kG*k[5mC]*dA*dG*dG*d[5mC]*dT*d[5mC]*dG*d[5mC]*dT*dG*k[5mC]*kT*k[5mC]) [compound 799058]”: 0%. On the same count and under the same terms, next, “799059 (antisense kA*k[5mC]*kT*dA*dG*d[5mC]*dA*dG*dG*d[5mC]*dT*d[5mC]*dG*k[5mC]*kT*kG) [compound 799059]”: 18%. Still for that read-out and setting: next, “799060 (antisense kG*k[5mC]*k[5mC]*dA*d[5mC]*dT*dA*dG*d[5mC]*dA*dG*dG*d[5mC]*kT*k[5mC]*kG) [compound 799060]”: 37%; “799061 (antisense kT*kT*k[5mC]*dG*dG*d[5mC]*d[5mC]*dA*d[5mC]*dT*dA*dG*d[5mC]*kA*kG*kG) [compound 799061]”: 45%; “799062 (antisense k[5mC]*kT*kG*dG*dT*dT*d[5mC]*dG*dG*d[5mC]*d[5mC]*dA*d[5mC]*kT*kA*kG) [compound 799062]”: 45%. Regarding “799063 (antisense kT*kG*kG*dT*dT*d[5mC]*dT*dG*dG*dT*dT*d[5mC]*dG*kG*k[5mC]*k[5mC]) [compound 799063]”, the “% inhibition of SMAD7 mRNA expression” value is reported as 9%. Still for that read-out and setting: to “799064 (antisense kT*kA*kA*dT*dT*dG*dG*dT*dT*d[5mC]*dT*dG*dG*kT*kT*k[5mC]) [compound 799064]” belongs 47%. For “799065 (antisense kA*kA*kA*dT*dA*dA*dT*dT*dG*dG*dT*dT*d[5mC]*kT*kG*kG) [compound 799065]”, the “% inhibition of SMAD7 mRNA expression” value is recorded as 35%. Still for that read-out and setting: next, “799066 (antisense kT*kG*kA*dA*dA*dA*dT*dA*dA*dT*dT*dG*dG*kT*kT*k[5mC]) [compound 799066]”: 0%; “799068 (antisense kG*kA*k[5mC]*dA*dA*dG*dG*dA*dT*dG*dA*dA*dA*kA*kT*kA) [compound 799068]”: 49%; “799069 (antisense kA*kT*kA*dA*dG*dA*d[5mC]*dA*dA*dG*dG*dA*dT*kG*kA*kA) [compound 799069]”: 18%.

In the case of “799071 (antisense kG*kG*kA*dA*dG*dG*dG*dA*dA*dT*dA*dA*dG*kA*k[5mC]*kA) [compound 799071]”, the “% inhibition of SMAD7 mRNA expression” value worked out at 44%. Same read-out and setting: to “799072 (antisense kG*k[5mC]*kA*dG*dG*dA*dA*dG*dG*dG*dA*dA*dT*kA*kA*kG) [compound 799072]” belongs 55%. As for “799073 (antisense k[5mC]*kG*k[5mC]*dT*dA*d[5mC]*dA*dA*dT*dG*dG*d[5mC]*dA*kG*kG*kG) [compound 799073]”, the “% Inhibition” value was 34%. The same measure, in the same setting: next, “799074 (antisense k[5mC]*kA*kA*dA*dA*dA*dA*dG*dA*dA*dA*dG*dA*k[5mC]*kG*k[5mC]) [compound 799074]”: 9%. The same measure, in the same setting: next, “799075 (antisense kA*kG*kA*dT*dG*dG*d[5mC]*d[5mC]*dA*dA*dA*dA*dA*kA*kG*kA) [compound 799075]”: 0%; “799076 (antisense kA*kG*k[5mC]*dA*dG*dA*dT*dG*dG*d[5mC]*d[5mC]*dA*dA*kA*kA*kA) [compound 799076]”: 34%. Regarding “799077 (antisense k[5mC]*kA*kG*dG*dA*dG*d[5mC]*dA*dG*dA*dT*dG*dG*k[5mC]*k[5mC]*kA) [compound 799077]”, the “% Inhibition” value worked out at 28%. The same measure, in the same setting: to “799078 (antisense kA*kT*k[5mC]*d[5mC]*dA*dG*dG*dA*dG*d[5mC]*dA*dG*dA*kT*kG*kG) [compound 799078]” belongs 19%; to “799079 (antisense kG*kA*kG*dA*dT*d[5mC]*d[5mC]*dA*dG*dG*dA*dG*d[5mC]*kA*kG*kA) [compound 799079]”, 46%; to “799080 (antisense kA*kG*kG*dG*dA*dG*dA*dT*d[5mC]*d[5mC]*dA*dG*dG*kA*kG*k[5mC]) [compound 799080]”, 56%. The same measure, in the same setting: to “799081 (antisense kT*k[5mC]*kT*d[5mC]*dA*dG*dG*dG*dA*dG*dA*dT*d[5mC]*k[5mC]*kA*kG) [compound 799081]” belongs 28%; to “799082 (antisense kG*k[5mC]*k[5mC]*d[5mC]*dA*dT*d[5mC]*dT*d[5mC]*dA*dG*dG*dG*kA*kG*kA) [compound 799082]”, 27%.

As to “799083 (antisense kG*kG*kA*dA*dG*d[5mC]*d[5mC]*d[5mC]*dA*dT*d[5mC]*dT*d[5mC]*kA*kG*kG) [compound 799083]”, the “% inhibition of SMAD7 mRNA expression” value is listed as 0%. The same measure, in the same setting: to “799084 (antisense k[5mC]*kT*kT*dG*dG*dG*dA*dA*dG*d[5mC]*d[5mC]*d[5mC]*dA*kT*k[5mC]*kT) [compound 799084]” belongs 0%.

For “799085 (antisense kG*k[5mC]*k[5mC]*d[5mC]*dT*dT*dG*dG*dG*dA*dA*dG*d[5mC]*k[5mC]*k[5mC]*kA) [compound 799085]”, the “% inhibition of SMAD7 mRNA expression” value is listed as 10%. Still for that read-out and setting: to “799086 (antisense kG*kG*k[5mC]*dA*dG*d[5mC]*d[5mC]*d[5mC]*dT*dT*dG*dG*dG*kA*kA*kG) [compound 799086]” belongs 0%. Take “799087 (antisense k[5mC]*k[5mC]*k[5mC]*d[5mC]*dG*dG*d[5mC]*dA*dG*d[5mC]*d[5mC]*d[5mC]*dT*kT*kG*kG) [compound 799087]”: the “% inhibition of SMAD7 mRNA expression” value was found to be 69%. For the substance “799088 (antisense kG*k[5mC]*kT*dG*d[5mC]*d[5mC]*d[5mC]*d[5mC]*dG*dG*d[5mC]*dA*dG*k[5mC]*k[5mC]*k[5mC]) [compound 799088]”, the “% inhibition of SMAD7 mRNA expression” value was found to be 24%. Same read-out and setting: next, “799090 (antisense kG*kT*kG*dA*dG*d[5mC]*dA*dA*dT*dA*d[5mC]*dT*dG*kT*kG*kA) [compound 799090]”: 49%. Still for that read-out and setting: to “799091 (antisense kA*k[5mC]*kT*dG*dG*dG*dT*dG*dA*dG*d[5mC]*dA*dA*kT*kA*k[5mC]) [compound 799091]” belongs 42%; to “799092 (antisense kG*kG*k[5mC]*dA*d[5mC]*dT*dG*dG*dG*dT*dG*dA*dG*k[5mC]*kA*kA) [compound 799092]”, 30%. As for “799093 (antisense kG*kT*k[5mC]*dA*d[5mC]*d[5mC]*dA*dG*dG*dG*d[5mC]*dA*dG*kG*k[5mC]*kA) [compound 799093]”, the “% Inhibition” value is reported as 47%. In the case of “799094 (antisense kT*kG*kA*dT*dG*dT*d[5mC]*dA*d[5mC]*d[5mC]*dA*dG*dG*kG*k[5mC]*kA) [compound 799094]”, the “% Inhibition” value is on record as 57%. The same measure, in the same setting: to “799095 (antisense kA*k[5mC]*k[5mC]*dT*dG*dA*dT*dG*dT*d[5mC]*dA*d[5mC]*d[5mC]*kA*kG*kG) [compound 799095]” belongs 0%; to “799096 (antisense kA*kA*k[5mC]*d[5mC]*dT*dG*dA*dT*dG*dT*d[5mC]*dA*d[5mC]*k[5mC]*kA*kG) [compound 799096]”, 30%. On the same count and under the same terms, next, “799097 (antisense kA*kA*kA*d[5mC]*d[5mC]*dT*dG*dA*dT*dG*dT*d[5mC]*dA*k[5mC]*k[5mC]*kA) [compound 799097]”: 39%; “799098 (antisense kA*kA*kA*dA*d[5mC]*d[5mC]*dT*dG*dA*dT*dG*dT*d[5mC]*kA*k[5mC]*k[5mC]) [compound 799098]”: 38%; “799099 (antisense kA*kA*kA*dA*dA*d[5mC]*d[5mC]*dT*dG*dA*dT*dG*dT*k[5mC]*kA*k[5mC]) [compound 799099]”: 44%. The same measure, in the same setting: to “799100 (antisense kG*kA*kA*dA*dA*dA*d[5mC]*d[5mC]*dT*dG*dA*dT*dG*kT*k[5mC]*kA) [compound 799100]” belongs 38%; to “799101 (antisense kG*kG*kA*dA*dA*dA*dA*d[5mC]*d[5mC]*dT*dG*dA*dT*kG*kT*k[5mC]) [compound 799101]”, 55%; to “799102 (antisense k[5mC]*kG*kG*dG*dA*dA*dA*dA*dA*d[5mC]*d[5mC]*dT*dG*kA*kT*kG) [compound 799102]”, 34%.

With “799103 (antisense k[5mC]*k[5mC]*kG*dG*dG*dA*dA*dA*dA*dA*d[5mC]*d[5mC]*dT*kG*kA*kT) [compound 799103]”, the “% inhibition of SMAD7 mRNA expression” value amounted to 12%.

Consider “799104 (antisense kA*kG*kT*d[5mC]*d[5mC]*dG*dG*dG*dA*dA*dA*dA*dA*k[5mC]*k[5mC]*kT) [compound 799104]”, for which the “% inhibition of SMAD7 mRNA expression” value is recorded as 40%.
